Data taken from patent US10703764B2, “Benzopiperazine compositions as BET bromodomain inhibitors” (FORMA Therapeutics, Inc., priority 2013, dated 2020).

Columns and labels:
BRD4 BD1 = molecular target: T1, BRD4 BD1 (Homo sapiens, UniProt O60885); assay: AlphaScreen binding assay, BRD4 Bromodomain 1
T1 construct: made in house
Summary of the method: (§1)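 An AlphaScreen competition format was used with His-BRD4 BD1 or BD2 and biotin-H4 K5/8/12/16-acetyl peptide, each at matched final levels of 50 nM (BD1) or 100 nM (BD2). Incubation in HEPES/NaCl buffer with 0.1% BSA and 0.01% Triton X-100 ran ≥1 h before IC50 determination.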

BRD4 BD2 = molecular target: T2, BRD4 BD2 (Homo sapiens, UniProt O60885); assay: AlphaScreen binding assay, BRD4 Bromodomain 2
T2 construct: made in house
Summary of the method: as §1

Structure (SMILES)	IC50 (BRD4 BD1) [nM]	IC50 (BRD4 BD2) [nM]
COC(=O)N1c2ccc(-c3cnn(C4CNC4)c3)cc2N(C(=O)OC(C)C)C[C@@H]1C [Example I-358]	1000 to 10000	50 to 500
C[C@H]1CN(C(=O)c2ccco2)c2cc(-c3ccc(S(C)(=O)=O)cc3)ccc2N1C(=O)C(F)(F)F [Example I-361]	> 10000	> 500
C[C@H]1CN(C(=O)c2ccco2)c2cc(-c3ccc(C(=O)N(C)C)cc3)ccc2N1C(=O)C(F)(F)F [Example I-362]	> 10000	> 500
CCCn1cc(-c2ccc3c(c2)N(C(=O)c2ccco2)C[C@H](C)N3C(=O)C(F)(F)F)cn1 [Example I-363]	1000 to 10000	50 to 500
C[C@H]1CN(C(=O)c2ccco2)c2cc(-c3ccc(S(C)(=O)=O)cc3)ccc2N1C(=O)CO [Example I-367]	> 10000	> 500
COCC(=O)N1c2ccc(-c3ccc(S(C)(=O)=O)cc3)cc2N(C(=O)c2ccco2)C[C@@H]1C [Example I-368]	> 10000	> 500
C[C@H]1CN(C(=O)c2ccco2)c2cc(-c3ccc(S(C)(=O)=O)cc3)ccc2N1C(=O)N(C)C [Example I-369]	> 10000	> 500
CC(C)C(=O)N1c2ccc(-c3ccc(S(C)(=O)=O)cc3)cc2N(C(=O)c2ccco2)C[C@@H]1C [Example I-370]	> 10000	> 500
CCOC(=O)N1c2ccc(-c3ccc(S(C)(=O)=O)cc3)cc2N(C(=O)c2ccco2)C[C@@H]1C [Example I-371]	> 10000	> 500
CC(C)OC(=O)N1c2ccc(-c3ccc(S(C)(=O)=O)cc3)cc2N(C(=O)c2ccco2)C[C@@H]1C [Example I-372]	> 10000	> 500
C[C@H]1CN(C(=O)c2ccco2)c2cc(-c3ccc(S(C)(=O)=O)cc3)ccc2N1C(=O)C1CCCC1 [Example I-373]	> 10000	> 500
C[C@H]1CN(C(=O)c2ccco2)c2cc(-c3ccc(S(C)(=O)=O)cc3)ccc2N1C(=O)C1CCC1 [Example I-374]	1000 to 10000	> 500
C[C@H]1CN(C(=O)c2ccco2)c2cc(-c3ccc(S(C)(=O)=O)cc3)ccc2N1C(=O)c1ccno1 [Example I-375]	> 10000	> 500
C[C@H]1CN(C(=O)c2ccco2)c2cc(-c3ccc(S(C)(=O)=O)cc3)ccc2N1C(=O)N1CCCC1 [Example I-376]	> 10000	> 500
CCOC(=O)N1C[C@H](C)N(C(=O)OC)c2ccc(-c3cnn(C4CC4)c3)cc21 [Example I-380]	100 to 1000	> 500
CC(=O)N1c2ccc(-c3ccccn3)cc2N(C(=O)c2ccco2)C[C@@H]1C [Example I-381]	1000 to 10000	50 to 500
CC(=O)N1c2ccc(-c3ncccn3)cc2N(C(=O)c2ccco2)C[C@@H]1C [Example I-383]	1000 to 10000	50 to 500
CC(=O)N1c2ccc(-c3cnccn3)cc2N(C(=O)c2ccco2)C[C@@H]1C [Example I-384]	1000 to 10000	50 to 500
CC(=O)N1c2ccc(-c3ccc4[nH]ccc4c3)cc2N(C(=O)c2ccco2)CC1C (centres unmarked) [Example I-385]	1000 to 10000	> 500
CC(=O)N1c2ccc(-c3cccc4c3OCC4)cc2N(C(=O)c2ccco2)C[C@@H]1C [Example I-386]	1000 to 10000	50 to 500

Structure (SMILES)	IC50 (BRD4 BD1) [nM]	IC50 (BRD4 BD2) [nM]
CC(=O)N1c2ccc(-c3nccn3C)cc2N(C(=O)c2ccco2)C[C@@H]1C [Example I-388]	> 10000	> 500
CC(=O)N1c2ccc(-c3cncn3C)cc2N(C(=O)c2ccco2)C[C@@H]1C [Example I-389]	> 10000	50 to 500
CC(=O)N1c2ccc(-c3cnoc3)cc2N(C(=O)c2ccco2)C[C@@H]1C [Example I-390]	1000 to 10000	50 to 500
CC(=O)N1c2ccc(-c3cnc4ccccn34)cc2N(C(=O)c2ccco2)C[C@@H]1C [Example I-391]	1000 to 10000	50 to 500
CC(=O)N1c2ccc(-c3ccc(C#N)cn3)cc2N(C(=O)c2ccco2)C[C@@H]1C [Example I-392]	1000 to 10000	50 to 500
CC(=O)N1c2ccc(-c3ccc4nnc(C)n4c3)cc2N(C(=O)c2ccco2)C[C@@H]1C [Example I-393]	1000 to 10000	50 to 500
CC(=O)N1c2ccc(-c3ccc4[nH]c(=O)[nH]c4c3)cc2N(C(=O)c2ccco2)CC1C (centres unmarked) [Example I-394]	100 to 1000	< 50
CC(=O)N1c2ccc(-c3ccc4c(c3)n(C)c(=O)n4C)cc2N(C(=O)c2ccco2)C[C@@H]1C [Example I-395]	100 to 1000	< 50
CC(=O)N1c2ccc(-c3ccc4nncn4n3)cc2N(C(=O)c2ccco2)C[C@@H]1C [Example I-396]	1000 to 10000	50 to 500
CC(=O)N1c2ccc(-c3ccc4[nH]ccc4n3)cc2N(C(=O)c2ccco2)CC1C (centres unmarked) [Example I-397]	1000 to 10000	50 to 500
CC(=O)N1c2ccc(-c3cccc(-c4noc(C)n4)c3)cc2N(C(=O)c2ccco2)C[C@@H]1C [Example I-402]	1000 to 10000	< 50
CC(=O)N1c2ccc(-c3nnc(C)s3)cc2N(C(=O)c2ccco2)C[C@@H]1C [Example I-403]	1000 to 10000	50 to 500
CC(=O)N1c2ccc(-c3ccc4nn(C)cc4c3)cc2N(C(=O)c2ccco2)C[C@@H]1C [Example I-404]	1000 to 10000	50 to 500
CC(=O)N1c2ccc(-c3cccc(-c4ncccn4)c3)cc2N(C(=O)c2ccco2)C[C@@H]1C [Example I-405]	1000 to 10000	50 to 500
CC(=O)N1c2ccc(-c3ccn4ccnc4n3)cc2N(C(=O)c2ccco2)C[C@@H]1C [Example I-406]	> 10000	> 500
CC(=O)N1c2ccc(C(=O)c3ccccc3)cc2N(C(=O)c2ccco2)C[C@@H]1C [Example I-408]	1000 to 10000	> 500
CC(=O)N1c2ccc(-c3ccc(=O)n(C)c3)cc2N(C(=O)c2ccco2)C[C@@H]1C [Example I-411]	1000 to 10000	50 to 500
CC(=O)N1c2ccc(-c3ccc(-c4nnco4)cc3)cc2N(C(=O)c2ccco2)C[C@@H]1C [Example I-416]	1000 to 10000	< 50
CC(=O)N1c2ccc(-c3ccc(CS(N)(=O)=O)cc3)cc2N(C(=O)c2ccco2)C[C@@H]1C [Example I-418]	1000 to 10000	< 50
CC(=O)N1c2ccc(-c3cnn(C)n3)cc2N(C(=O)c2ccco2)C[C@@H]1C [Example I-419]	100 to 1000	> 500

More lines, now with the values ahead:

IC50 (BRD4 BD1) [nM]	IC50 (BRD4 BD2) [nM]	Structure (SMILES)
100 to 1000	< 50	CC(=O)N1c2ccc(-c3ccc(-c4cc(C(=O)O)[nH]n4)cc3)cc2N(C(=O)c2ccco2)CC1C (centres unmarked) [Example I-421]
100 to 1000	< 50	CC(=O)N1c2ccc(-c3ccc(N4CCCS4(=O)=O)cc3)cc2N(C(=O)c2ccco2)C[C@@H]1C [Example I-424]
> 10000	> 500	CC(=O)N1c2ccc(-c3ncc(N)s3)cc2N(C(=O)c2ccco2)C[C@@H]1C [Example I-431]
100 to 1000	50 to 500	CC(=O)N1c2ccc(-c3cnsc3)cc2N(C(=O)c2ccco2)C[C@@H]1C [Example I-432]
100 to 1000	50 to 500	CC(=O)N1c2ccc(-c3ccc(S(=O)(=O)CC(=O)N(C)C)cc3)cc2N(C(=O)c2ccco2)C[C@@H]1C [Example I-433]
1000 to 10000	50 to 500	CC(=O)N1c2ccc(-c3ccns3)cc2N(C(=O)c2ccco2)C[C@@H]1C [Example I-434]
100 to 1000	50 to 500	C[C@H]1CN(C(=O)C2CC2)c2cc(-c3ccc(N4CCCS4(=O)=O)cc3)ccc2N1C(=O)C1CC1 [Example I-440]
100 to 1000	50 to 500	CC(=O)N1c2ccc(-c3cnc(N)cn3)cc2N(C(=O)C2CC2)C[C@@H]1C [Example I-441]
1000 to 10000	50 to 500	C[C@H]1CN(C(=O)C2CC2)c2cc(-c3cnc(N)cn3)ccc2N1C(=O)C1CC1 [Example I-442]
100 to 1000	50 to 500	C[C@H]1CN(C(=O)C2CC2)c2cc(-c3ccc(C4(O)COC4)cc3)ccc2N1C(=O)C1CC1 [Example I-444]
100 to 1000	50 to 500	C[C@H]1CN(C(=O)C2CC2)c2cc(-c3ccc(CS(N)(=O)=O)cc3)ccc2N1C(=O)C1CC1 [Example I-446]
100 to 1000	< 50	C[C@H]1CN(C(=O)C2CC2)c2cc(-c3ccc(S(=O)(=O)CCN)cc3)ccc2N1C(=O)C1CC1 [Example I-448]
1000 to 10000	50 to 500	C[C@H]1CN(C(=O)C2CC2)c2cc(-c3ccc(S(=O)(=O)CCO)cc3)ccc2N1C(=O)C1CC1 [Example I-450]
100 to 1000	50 to 500	CC(=O)N1c2ccc(-c3ccc(C(=O)NCCN)cc3)cc2N(C(=O)C2CC2)C[C@@H]1C [Example I-451]
1000 to 10000	50 to 500	C[C@H]1CN(C(=O)C2CC2)c2cc(-c3ccc(C(=O)NCCN)cc3)ccc2N1C(=O)C1CC1 [Example I-452]
1000 to 10000	50 to 500	CC(=O)N1c2ccc(-c3cn(C)nn3)cc2N(C(=O)C2CC2)C[C@@H]1C [Example I-453]
1000 to 10000	50 to 500	C[C@H]1CN(C(=O)C2CC2)c2cc(-c3cn(C)nn3)ccc2N1C(=O)C1CC1 [Example I-454]
1000 to 10000	50 to 500	COC(=O)N1c2ccc(-c3ccc(N4CCCS4(=O)=O)cc3)cc2N(C(=O)C2CC2)C[C@@H]1C [Example I-457]
1000 to 10000	50 to 500	COC(=O)N1c2ccc(-c3cnc(N)cn3)cc2N(C(=O)C2CC2)C[C@@H]1C [Example I-458]
1000 to 10000	50 to 500	COC(=O)N1c2ccc(-c3ccc(C4(O)COC4)cc3)cc2N(C(=O)C2CC2)C[C@@H]1C [Example I-459]
1000 to 10000	50 to 500	COC(=O)N1c2ccc(-c3ccc(CS(N)(=O)=O)cc3)cc2N(C(=O)C2CC2)C[C@@H]1C [Example I-460]
